Source: ChEMBL document CHEMBL5321216, “Discovery of bipyridine amide derivatives targeting pRXRα-PLK1 interaction for anticancer therapy” (Eur J Med Chem, 2023)
The source made the active and inactive calls. The calls are words filed in the database; no cut-off is given here.

Key:
A549 [1] = test: Induction of apoptosis in human A549 cells assessed as dead cells at 31.25 nM incubated for 24 hrs by annexin V-FITC/PI staining based flow cytometry analysis (reference value: 0.75%); format: functional
A549 [2] = test: Induction of apoptosis in human A549 cells assessed as early apoptotic cells at 62.5 nM incubated for 24 hrs by annexin V-FITC/PI staining based flow cytometry analysis (reference value: 0.78%); format: functional
A549 [3] = test: Induction of cell cycle arrest in RXRalpha knockout human A549 cells assessed as accumulation of cells at G1 phase at 125 nM incubated for 12 hrs by DAPI staining based flow cytometry analysis (reference value: 52.29 %); format: functional
A549 [4] = test: Antiproliferative activity against wild type human A549 cells assessed as inhibition of cell growth incubated for 72 hrs by MTT assay; format: functional, cell-based; conditions: A549, 72 h
A549 [5] = test: Induction of apoptosis in human A549 cells assessed as early apoptotic cells at 31.25 nM incubated for 24 hrs by annexin V-FITC/PI staining based flow cytometry analysis (reference value: 0.78%); format: functional
A549 [6] = test: Induction of cell cycle arrest in human A549 cells assessed as accumulation of cells at G2 phase at 62.5 nM incubated for 12 hrs by flow cytometry analysis (reference value: 8.62%); format: functional
A549 [7] = test: Induction of cell cycle arrest in human A549 cells assessed as accumulation of cells at S phase at 15.625 nM incubated for 12 hrs by flow cytometry analysis (reference value: 31.81%); format: functional; conditions: 0.01562 µM
MDA-MB-231 [8] = test: Induction of apoptosis in human MDA-MB-231 cells assessed as early apoptotic cells at 125 nM incubated for 24 hrs by annexin V-FITC/PI staining based flow cytometry analysis (reference value: 2.03%); format: functional
[9] = Toxicity in BALB/c mouse xenografted with human MDA-MB-231 cells assessed as heart damage at 25 mg/kg/day, ip administered for 15 days by H and E staining based analysis; format: organism-based; conditions: in vivo, 360 h, time 15 day
A549 [10] = test: Induction of cell cycle arrest in wild type human A549 cells assessed as accumulation of cells at G2 phase at 125 nM incubated for 12 hrs by DAPI staining based flow cytometry analysis (reference value: 21.99 %); format: functional
HeLa = test: Antiproliferative activity against human HeLa cells assessed as inhibition of cell proliferation incubated for 72 hrs by MTT assay; format: functional, cell-based
[11] = Selectivity index, ratio of IC50 for human HepG2 cells to IC50 for human MDA-MB-231 cells; format: functional
[12] = Drug absorption in KM mouse at 25 mg/kg, ip measured after 0.5 to 2 hrs; format: ADME, organism-based; conditions: in vivo, time 0.5-2 hrs
[13] = Selectivity index, ratio of IC50 for human HCC1937 cells to IC50 for human MDA-MB-231 cells; format: functional
MDA-MB-231 [14] = test: Induction of cell cycle arrest in human MDA-MB-231 cells assessed as accumulation of cells at G1 phase at 15.625 nM incubated for 12 hrs by flow cytometry analysis (reference value: 43.2%); format: functional; conditions: 0.01562 µM
MDA-MB-231 [15] = test: Antitumor activity against human MDA-MB-231 cells xenografted in BALB/c nude mouse assessed as tumor growth inhibition at 25 mg/kg/day, ip administered for 15 days and measured once a day relative to control; format: functional; conditions: MDA-MB-231, 360 h, time 15 day, read-out: TGI
HepG2 = test: Antiproliferative activity against human HepG2 cells assessed as inhibition of cell proliferation incubated for 72 hrs by MTT assay; format: functional, cell-based; conditions: HepG2, 72 h
[16] = Apparent clearance during terminal phase in Sprague-Dawley rat at 25 mg/kg, ip measured for 48 hrs by LC-MS/MS analysis; format: ADME, organism-based; conditions: in vivo, read-out: CLz/F (converted)
[17] = Toxicity in BALB/c mouse xenografted with human MDA-MB-231 cells assessed as reduction in body weight at 12.5 to 25 mg/kg/day, ip administered for 15 days; format: organism-based; conditions: in vivo, 360 h, dose 12.5-25 mg/kg/day, time 15 day
A549 [18] = test: Induction of cell cycle arrest in RXRalpha knockout human A549 cells assessed as accumulation of cells at G2 phase at 125 nM incubated for 12 hrs by DAPI staining based flow cytometry analysis (reference value: 14.97%); format: functional
MDA-MB-231 [19] = test: Antitumor activity against human MDA-MB-231 cells xenografted in BALB/c nude mouse assessed as inhibition of tumor growth by measuring chromosome aberrations at 12.5 to 25 mg/kg/day, ip administered for 15 days; format: functional, organism-based; conditions: dose 12.5-25 mg/kg/day, time 15.0 day
MDA-MB-231 [20] = test: Induction of apoptosis in human MDA-MB-231 cells assessed as live cells at 250 nM incubated for 24 hrs by annexin V-FITC/PI staining based flow cytometry analysis (reference value: 91.3%); format: functional
MDA-MB-231 [21] = test: Induction of mitotic arrest in human MDA-MB-231 cells assessed as chromosome misalignment at 62.5 nM incubated for 12 hrs by alpha-tubulin/DAPI staining based confocal microscopic analysis; format: functional, cell-based
MDA-MB-231 [22] = test: Induction of cell cycle arrest in human MDA-MB-231 cells assessed as accumulation of cells at S phase at 62.5 nM incubated for 12 hrs by flow cytometry analysis (reference value: 40.89%); format: functional
MDA-MB-231 [23] = test: Inhibition of colony formation in human MDA-MB-231 cells incubated for 48 hrs followed by replacement with normal culture medium and measured after […] by crystal violet staining based assay; format: functional, cell-based; conditions: dose 0.976-250 nM
[24] = Toxicity in BALB/c mouse xenografted with human MDA-MB-231 cells assessed as kidney damage at 25 mg/kg/day, ip administered for 15 days by H and E staining based analysis; format: organism-based; conditions: in vivo, 360 h, time 15 day
[25] = Apparent volume of distribution during terminal phase in Sprague-Dawley rat at 25 mg/kg, ip measured for 48 hrs by LC-MS/MS analysis; format: ADME, organism-based; conditions: in vivo, read-out: Vz/F
A549 [26] = test: Induction of cell cycle arrest in wild type human A549 cells assessed as accumulation of cells at G1 phase at 125 nM incubated for 12 hrs by DAPI staining based flow cytometry analysis (reference value: 36.89 %); format: functional
MDA-MB-231 [27] = test: Induction of apoptosis in human MDA-MB-231 cells assessed as late apoptotic cells at 62.5 nM incubated for 24 hrs by annexin V-FITC/PI staining based flow cytometry analysis (reference value: 5.93%); format: functional
A549 [28] = test: Induction of cell cycle arrest in human A549 cells assessed as accumulation of cells at G2 phase at 15.625 nM incubated for 12 hrs by flow cytometry analysis (reference value: 8.62%); format: functional; conditions: 0.01562 µM
A549 [29] = test: Induction of apoptosis in human A549 cells assessed as early apoptotic cells at 125 nM incubated for 24 hrs by annexin V-FITC/PI staining based flow cytometry analysis (reference value: 0.78%); format: functional
MDA-MB-231 [30] = test: Induction of apoptosis in human MDA-MB-231 cells assessed as early apoptotic cells at 31.25 nM incubated for 24 hrs by annexin V-FITC/PI staining based flow cytometry analysis (reference value: 2.03%); format: functional
MDA-MB-231 [31] = test: Induction of RXRalpha-mediated mitotic arrest in human MDA-MB-231 cells assessed as accumulation of pRXRalpha protein at 7.8 to 500 nM measured after 24 hrs by Western blot analysis; format: functional, cell-based; conditions: dose 7.8-500 nM

O=C(/C=C/c1ccccc1)Nc1cc(-c2ccnc(N3CCC(CO)CC3)c2)ccn1
Activity (A549 [1]): 3.98%
Activity (A549 [2]): 11.4%
Activity (A549 [3]): 17.83%
IC50 (A549 [4]): 196 nM
Activity (A549 [5]): 6.28%
Activity (A549 [6]): 12.89%
Activity (A549 [7]): 31.99%
Activity (MDA-MB-231 [8]): 11.2%
Activity [9]: Non-Toxic
Activity (A549 [10]): 79.66%
IC50 (HeLa): 77 nM
Ratio IC50 [11]: 4.81
Drug absorption [12]: Active
Ratio IC50 [13]: 35.06
Activity (MDA-MB-231 [14]): 42.77%
inhibition in vivo at 25 mg/kg/day (MDA-MB-231 [15]): 59.3%
IC50 (HepG2): 128 nM
CL/F [16]: 25.8 mL/min/kg
Activity [17]: Non-Toxic
Activity (A549 [18]): 45.99%
Activity (MDA-MB-231 [19]): Active
Activity (MDA-MB-231 [20]): 57.9%
Activity (MDA-MB-231 [21]): Active
Activity (MDA-MB-231 [22]): 16.51%
inhibition (MDA-MB-231 [23]): Dose-Dependent Effect
Activity [24]: Non-Toxic
Vd/F [25]: 5.15 L/kg
Activity (A549 [26]): 2.24%
Activity (MDA-MB-231 [27]): 15.2%
Activity (A549 [28]): 8.95%
Activity (A549 [29]): 22.9%
Activity (MDA-MB-231 [30]): 2.24%
Activity (MDA-MB-231 [31]): Active
